Assay results reported in patent US20220389009A1, “SUBSTITUTED 1,6-NAPHTHYRIDINE INHIBITORS OF CDK5” (Goldfinch Bio, Inc., priority 2019, published 2022).

Legend:
[1] = molecular target: CDK5/p25 (Homo sapiens, UniProt Q00535); experiment: CDK5 mobility shift assay (enzymatic activity of CDK5/p25); assay type: biochemical; conditions: for IC50: 0.154 nM CDK5/p25, FL peptide 29, 60 min at room temperature, read-out: CDK5 IC50; for CDK5/CDK2 specificity: fold more active against CDK5 than CDK2
Outline: (§1)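 Carna CDK5/p25 (0.154 nM) or CDK2/CycA2 (1.25 nM) was preincubated 30 min with compound, ATP ([…] for CDK5; 37 μM for CDK2) and 10 mM MgCl2 in HEPES pH 7.5. The reaction was started with 1.5 μM FL peptide (29 for CDK5, 18 for CDK2) and run 60 min (CDK5) or 120 min (CDK2) at room temperature. Product was read by mobility shift, with IC50 from a 4-parameter fit.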

[2] = molecular target: CDK2/CycA2 (Homo sapiens, UniProt P24941); experiment: CDK2 mobility shift assay (enzymatic activity of CDK2/CycA2); assay type: biochemical; conditions: 1.25 nM CDK2/CycA2, 37 μM ATP, FL Peptide 18, 120 min at room temperature; read-out: CDK2 IC50
Outline: as §1

Sequence of CDK5/p25 (Q00535 whole entry): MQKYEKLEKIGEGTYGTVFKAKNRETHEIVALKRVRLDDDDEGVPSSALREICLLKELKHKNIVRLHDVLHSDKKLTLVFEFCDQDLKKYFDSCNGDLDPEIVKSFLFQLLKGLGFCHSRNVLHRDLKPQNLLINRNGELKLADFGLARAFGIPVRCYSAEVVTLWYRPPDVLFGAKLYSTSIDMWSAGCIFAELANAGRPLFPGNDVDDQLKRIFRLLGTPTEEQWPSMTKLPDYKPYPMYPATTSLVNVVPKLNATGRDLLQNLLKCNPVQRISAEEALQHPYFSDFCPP
Sequence of CDK5/p25 (Q15078 99-307 partner limits assumed): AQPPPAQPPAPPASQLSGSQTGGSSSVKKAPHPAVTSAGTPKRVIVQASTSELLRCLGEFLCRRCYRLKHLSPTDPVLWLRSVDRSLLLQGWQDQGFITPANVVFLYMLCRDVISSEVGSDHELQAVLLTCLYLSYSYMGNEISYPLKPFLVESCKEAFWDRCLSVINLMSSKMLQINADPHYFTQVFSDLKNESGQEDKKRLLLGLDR

| SMILES | IC50 [1] | CDK5/CDK2 specificity [1] | IC50 [2] |
| --- | --- | --- | --- |
| CN1CCC(C(C)(O)c2ccc3cnc(Nc4ccc(-c5ccc(=O)n(C)c5)cc4F)cc3n2)CC1 (stereo not drawn) [Compound 346] | 100 to 1000 nM | ++ (greater than 10-fold and less than or equal to 100-fold more active against CDK5 than CDK2) | > 1000 nM |
| COC(=O)c1ccn(-c2ccc(Nc3cc4nc(C(O)C5CCN(C)CC5)ccc4cn3)c(F)c2)n1 (stereo not drawn) [Compound 347] | < 10 nM | +++ (greater than 100-fold more active against CDK5 than CDK2) | 100 to 1000 nM |
| CN1CCC(C(C)(O)c2ccc3cnc(Nc4cccc(N5CCOCC5)c4)cc3n2)CC1 (stereo not drawn) [Compound 348] | < 10 nM | ++ (greater than 10-fold and less than or equal to 100-fold more active against CDK5 than CDK2) | 100 to 1000 nM |
| CN1CCC(C(C)(O)c2ccc3cnc(Nc4cccc(N5CCCC5=O)c4)cc3n2)CC1 (stereo not drawn) [Compound 350] | < 10 nM | ++ (greater than 10-fold and less than or equal to 100-fold more active against CDK5 than CDK2) | 10 to 100 nM |
| CN1CCC(C(C)(O)c2ccc3cnc(Nc4ccc(-c5ccc(=O)n(C)c5)cc4F)cc3n2)CC1 (stereo not drawn) [Compound 351] | < 10 nM | ++ (greater than 10-fold and less than or equal to 100-fold more active against CDK5 than CDK2) | 10 to 100 nM |
| CN1CCC(C(C)(O)c2ccc3cnc(Nc4ccc(-c5cccn(C)c5=O)cc4F)cc3n2)CC1 (stereo not drawn) [Compound 352] | < 10 nM | +++ (greater than 100-fold more active against CDK5 than CDK2) | 100 to 1000 nM |
| CN1CCC(C(C)(O)c2ccc3cnc(Nc4ccc(CN5CCOCC5)cc4F)cc3n2)CC1 (stereo not drawn) [Compound 353] | < 10 nM | ++ (greater than 10-fold and less than or equal to 100-fold more active against CDK5 than CDK2) | 10 to 100 nM |
| CN1CCC(C(C)(O)c2ccc3cnc(Nc4ccc(-c5cccc(=O)n5C)cc4F)cc3n2)CC1 (stereo not drawn) [Compound 354] | < 10 nM | ++ (greater than 10-fold and less than or equal to 100-fold more active against CDK5 than CDK2) | 10 to 100 nM |
| CN1CCC(C(C)(O)c2ccc3cnc(Nc4ccc(-c5noc(=O)[nH]5)cc4F)cc3n2)CC1 (stereo not drawn) [Compound 355] | < 10 nM | ++ (greater than 10-fold and less than or equal to 100-fold more active against CDK5 than CDK2) | 10 to 100 nM |
| CN1CCC(C(C)(O)c2ccc3cnc(Nc4ccc(-c5ccc(C#N)cn5)cc4F)cc3n2)CC1 (stereo not drawn) [Compound 356] | < 10 nM | ++ (greater than 10-fold and less than or equal to 100-fold more active against CDK5 than CDK2) | 10 to 100 nM |
| CN1CCC(C(C)(O)c2ccc3cnc(Nc4ccc(-c5ccc(C#N)cc5)cc4F)cc3n2)CC1 (stereo not drawn) [Compound 358] | < 10 nM | ++ (greater than 10-fold and less than or equal to 100-fold more active against CDK5 than CDK2) | 10 to 100 nM |
| CN1CCC([C@@](C)(O)c2ccc3cnc(Nc4ccc(-n5cc(C(=O)O)cn5)cc4F)cc3n2)CC1 [Compound 362, 1-[3-fluoro-4-([2-[(1R)-1-hydroxy-1-(1-methylpiperidin-4-yl)ethyl]-1,6-naphthyridin-7-yl]amino)phenyl]pyrazole-4-carboxylic acid] | < 10 nM | ++ (greater than 10-fold and less than or equal to 100-fold more active against CDK5 than CDK2) | 10 to 100 nM |
| CN1CCC([C@@](C)(O)c2ccc3cnc(Nc4ccc(-c5cccc(C(N)=O)c5)cc4F)cc3n2)CC1 [Compound 364, (R)-3′-fluoro-4′-((2-(1-hydroxy-1-(1-methylpiperidin-4-yl)ethyl)-1,6-naphthyridin-7-yl)amino)-[1,1′-biphenyl]-3-carboxamide] | < 10 nM | ++ (greater than 10-fold and less than or equal to 100-fold more active against CDK5 than CDK2) | 10 to 100 nM |
| CN1CCC(C2(c3ccc4cnc(Nc5ccc(-n6cccn6)cc5F)cc4n3)CCO2)CC1 (stereo not drawn) [Compound 365, N-(2-fluoro-4-(1H-pyrazol-1-yl)phenyl)-2-(2-(1-methylpiperidin-4-yl)oxetan-2-yl)-1,6-naphthyridin-7-amine] | 10 to 100 nM | ++ (greater than 10-fold and less than or equal to 100-fold more active against CDK5 than CDK2) | 100 to 1000 nM |
| COC(=O)c1cnn(-c2ccc(Nc3cc4nc([C@](C)(O)C5CCN(C)CC5)ccc4cn3)c(F)c2)c1 [Compound 367, methyl 1-[3-fluoro-4-([2-[(1R)-1-hydroxy-1-(1-methylpiperidin-4-yl)ethyl]-1,6-naphthyridin-7-yl]amino)phenyl]pyrazole-4-carboxylate] | < 10 nM | ++ (greater than 10-fold and less than or equal to 100-fold more active against CDK5 than CDK2) | 10 to 100 nM |
| CN1CCC(C(C)(O)c2ccc3cnc(Nc4ccc(S(C)(=O)=O)cc4)cc3n2)CC1 (stereo not drawn) [Compound 370] | < 10 nM | + (10-fold or less more active against CDK5 than CDK2) | < 10 nM |
| CN1CCC(C(C)(O)c2ccc3cnc(Nc4ccc(-n5ccc(C#N)n5)cc4F)cc3n2)CC1 (stereo not drawn) [Compound 371] | < 10 nM | ++ (greater than 10-fold and less than or equal to 100-fold more active against CDK5 than CDK2) | 100 to 1000 nM |
| CN1CCC(C(C)(O)c2ccc3cnc(Nc4cccc(C(N)=O)c4)cc3n2)CC1 (stereo not drawn) [Compound 372] | < 10 nM | ++ (greater than 10-fold and less than or equal to 100-fold more active against CDK5 than CDK2) | < 10 nM |
| CCc1cccc(Nc2cc3nc(C(C)(O)C4CCN(C)CC4)ccc3cn2)c1 (stereo not drawn) [Compound 373] | < 10 nM | ++ (greater than 10-fold and less than or equal to 100-fold more active against CDK5 than CDK2) | 10 to 100 nM |
| CN1CCC(/C(=N\O)c2ccc3cnc(Nc4ccc(-n5cccn5)cc4F)cc3n2)CC1 [Compound 375] | < 10 nM | ++ (greater than 10-fold and less than or equal to 100-fold more active against CDK5 than CDK2) | 10 to 100 nM |
| CN1CCC(S(=O)(=O)c2ccc3cnc(Nc4ccc(-c5ncon5)cc4F)cc3n2)CC1 [Compound 376] | 100 to 1000 nM | + (10-fold or less more active against CDK5 than CDK2) | 100 to 1000 nM |
| CN1CCC(S(=O)(=O)c2ccc3cnc(Nc4ccc(-c5cccn(C)c5=O)cc4F)cc3n2)CC1 [Compound 378] | 10 to 100 nM | +++ (greater than 100-fold more active against CDK5 than CDK2) | > 1000 nM |
| CCc1ccc(F)c(Nc2cc3nc(S(=O)(=O)C4CCN(C)CC4)ccc3cn2)c1 [Compound 379] | < 10 nM | +++ (greater than 100-fold more active against CDK5 than CDK2) | 100 to 1000 nM |
| CC(C)N1CCC(S(=O)(=O)c2ccc3cnc(Nc4ccc(-n5cccn5)cc4F)cc3n2)CC1 [Compound 380] | 10 to 100 nM | ++ (greater than 10-fold and less than or equal to 100-fold more active against CDK5 than CDK2) | 100 to 1000 nM |
| CN1CCC(/C(=N/O)c2ccc3cnc(Nc4ccc(-n5cccn5)cc4F)cc3n2)CC1 [Compound 381] | 10 to 100 nM | + (10-fold or less more active against CDK5 than CDK2) | 100 to 1000 nM |
